Source: PMC6494957 (Frontiers in Microbiology, 2019)
Like-named read-outs stand apart in the source and are kept apart here.

Key:
[1] = system: P. aeruginosa (n = 30) clinical isolates from otitis externa cases in dogs; assay: MIC/MBC and checkerboard, canine otitis externa isolates; format: cell-based, Pseudomonas aeruginosa; conditions: for MIC50 / MIC90: Pseudomonas aeruginosa; for MIC50, in combination of EDTA and ROB / MIC90, in combination of EDTA and ROB / MIC range, in combination of EDTA and ROB: concentration of the labelled component
Description: (§1) Escherichia coli ATCC 25922, E. coli ATCC 11229, P. aeruginosa ATCC 27853, P. aeruginosa PA01, Pseudomonas putida ATCC 17428, P. mirabilis ATCC 43071, K. pneumoniae ATCC 13883, A. baumannii ATCC 19606, and A. baumannii ATCC 12457 were used for preliminary susceptibility testing and combination experiments. S. aureus ATCC 29213 and S. pneumoniae ATCC 49619 were used as internal quality controls. A variety of bacterial organisms from both human and canine infections were investigated in this study (n = 119 isolates in total). Twenty-eight clinical Acinetobacter spp. isolates were obtained from cases of human skin and soft tissue infections, including 18 Acinetobacter baumannii and 10 A. calcoaceticus, kindly provided by a person (Institute of Medical and Veterinary Science, South Australia). […] Ninety-one clinical isolates were obtained from cases of canine otitis externa, including seven methicillin-susceptible S. pseudintermedius (MSSP), 13 multidrug- and methicillin-resistant S. pseudintermedius (MRSP) ([Saputra et al., 2017]), 20 beta-haemolytic Streptococcus spp., 30 P. aeruginosa (10 of them resistant to gentamicin and 21 P. mirabilis isolates). These isolates were obtained from the bacterial collection of the national survey of antimicrobial resistance in animals conducted in Australia. Swab samples from dogs with signs of otitis externa were collected by veterinarians and submitted to government, private or university diagnostic laboratories throughout Australia. After routine bacterial identification and the removal of confidential information, the participating veterinary diagnostic laboratories submitted the bacteria and their clinical information to PC2 Laboratories, Australian Centre for Antimicrobial Resistance Ecology, School of Animal and Veterinary Sciences, University of Adelaide, Roseworthy Campus, Roseworthy, SA, Australia, for further study. Thus, animal ethics approval was not required in this study. These organisms were identified to species level using biochemical testing and MALDI-TOF mass spectrometry (Bruker, Preston, VIC, Australia).
(§2) The MIC for ampicillin or gentamicin against each isolate was determined for each test to serve as an internal quality control. The MICs of isolates were determined by visual reading and using an EnSpire Multimode Plate Reader 2300 atA600nm.
(§3) Briefly, 10 μl aliquots from each duplicate well from the MIC assays (starting from the MIC for each compound) were inoculated onto a sheep blood agar (SBA) plate and incubated at 37°C.
(§4) Briefly, antimicrobial stock solutions for robenidine and PMBN were prepared at a concentration of 12.8 mg/ml in DMSO. […] A 1 μl aliquot of the first compound from each combination was dispensed along the abscissa (from row A to G) of the 96-well microplate, while the second compound was dispensed along the ordinate (from column 12 to column 3) using an electronic multichannel pipette followed by 89 μl of LB broth. Each well of the plate was inoculated with an aliquot of 10 μl bacterial suspension at a concentration of 1-5 × 10^6 colony forming units (CFU) per ml. Subsequently, the plate was incubated at 37°C for 24 h. The fractional inhibitory concentration index (FICI) described the results of the combinations, and was calculated utilizing the following formula:
(§5) DRI = MIC of drug alone/MIC of drug in combination

[2] = system: P. mirabilis (n = 21) clinical isolates from otitis externa cases in dogs; assay: as above; format: cell-based, Proteus mirabilis; conditions: for MIC50 / MIC90: Proteus mirabilis; for MIC50, in combination of EDTA and ROB / MIC90, in combination of EDTA and ROB / MIC range, in combination of EDTA and ROB: concentration of the labelled component
Description: as §1, §2, §3, §4, §5

HEK 293 cell line = assay: In vitro cytotoxicity, WST-1; format: cell-based; conditions: Homo sapiens, HEK293, 10% FBS, read-out: IC50, single agent
Procedure: Cells were maintained in Dulbecco’s modified Eagle’s medium (DMEM) with 10% fetal bovine serum (FBS) and 1% PenStrep (100 U/mL Penicillin and 100 μg/mL Streptomycin) at 37°C with 5% CO2. Cells were serially passaged at ∼80% confluence ∼ every 4 days. Assays were performed in duplicate in 96 well plates seeded with ∼25,000 cells per well. […] Briefly, the antimicrobials were prepared by performing a twofold serial dilution at 100× of tested concentration in DMSO. Subsequently, a 1 μl aliquot of each concentration was transferred to a sterile 96-well plate containing fresh DMEM with either 10% FBS. After mixing four times, the media aliquots with different concentrations of antimicrobial were transferred to each well of the 96-well plate seeded with cells, using wells containing 1–2% DMSO only as control. To determine the effect of FBS on the cytotoxicity of each compound, DMEM with 40% FBS containing different concentrations of antimicrobial was prepared as described above. After 24 h of exposure, WST-1 reagent (Cell Proliferation Assay reagent, Roche) at a concentration of 10% was added to each well. Absorbance at A450 nm on a Multiskan Ascent 354 Spectrophotometer (Labsystems) was measured after 1 h of incubation. The IC50 value was determined for each compound against each cell line via non-linear regression (three parameters) using GraphPad Prism v6 software.

[3] = parameters: method as in Abraham et al., 2016; conditions: ref Abraham et al., 2016, cited from earlier work
[4] = system: Gram-negative control strains; assay: Checkerboard, summary over Gram-negative strains; format: cell-based
Procedure: as §4, §5

[5] = system: tested pathogens (canine otitis externa isolates); assay: MIC, summary over canine otitis externa pathogens; format: cell-based
Procedure: Luria Bertani (LB) broth (Oxoid, Australia) was applied for MIC testing in lieu of cation-adjusted Mueller-Hinton broth as robenidine has been previously shown to chelate calcium ions. Furthermore, a twofold serial dilution of robenidine was performed in 100% DMSO, with 1 μl dispensed to each well due to the hydrophobicity of the compound ([Abraham et al., 2016]). The MIC for ampicillin or gentamicin against each isolate was determined for each test to serve as an internal quality control. The MICs of isolates were determined by visual reading and using an EnSpire Multimode Plate Reader 2300 atA600nm. […] Each well of the plate was inoculated with an aliquot of 10 μl bacterial suspension at a concentration of 1-5 × 10^6 colony forming units (CFU) per ml. Subsequently, the plate was incubated at 37°C for 24 h. The fractional inhibitory concentration index (FICI) described the results of the combinations, and was calculated utilizing the following formula: […]

[6] = canine otitis externa, read-out: MIC50, single drug
[7] = canine otitis externa, read-out: MIC90, single drug
[8] = read-out: MIC50, single drug (mM in parentheses)
[9] = read-out: MIC90, single drug (mM in parentheses)

In the case of O=C(O)CN(CCN(CC(=O)O)CC(=O)O)CC(=O)O [EDTA, ethylenediaminetetraacetic acid], the “MBC/MIC row, EDTA in combination” value [1] is reported as 750 µg/mL, the “MBC/MIC row, EDTA in combination (mM in parentheses)” value [1] is reported as 2 mM and the “MIC range, single drug (mM in parentheses)” value [1] is reported as 2 to 12 mM. For the same compound, the “MIC50, in combination of EDTA and ROB (mM in parentheses)” value ([1]; EDTA component) was 4 mM, the “MIC90, in combination of EDTA and ROB (mM in parentheses)” value ([1]; EDTA component) was 4 mM and the “MIC range, in combination of EDTA and ROB (mM in parentheses)” value ([1]; EDTA component) was 1 to 4 mM. The MIC50 [1, 6] was 3000 µg/mL, the MIC90 [1, 7] was 3000 µg/mL and the MIC50 [1, 8] was 8 mM. The MIC90 [1, 9] was 8 mM, the “MIC range, single drug” value ([1]; canine otitis externa) was 750 to 4500 µg/mL and the “MIC50, in combination of EDTA and ROB” value [1] was 1500 µg/mL. The “MIC90, in combination of EDTA and ROB” value [1] was 1500 µg/mL, the “MIC range, in combination of EDTA and ROB” value [1] was 380 to 1500 µg/mL and the “MBC/MIC row, EDTA in combination” value [2] was 750 µg/mL. For the same compound, the “MBC/MIC row, EDTA in combination (mM in parentheses)” value [2] was 2 mM, the “MIC range, single drug (mM in parentheses)” value [2] was 0.5 to 2 mM and the “MIC50, in combination of EDTA and ROB (mM in parentheses)” value ([2]; EDTA component) was 1 mM. The “MIC90, in combination of EDTA and ROB (mM in parentheses)” value ([2]; EDTA component) was 1 mM, the “MIC range, in combination of EDTA and ROB (mM in parentheses)” value ([2]; EDTA component) was 0.5 to 1 mM and the MIC50 [2, 6] was 380 µg/mL. For the same compound, the MIC90 [2, 7] was 750 µg/mL, the MIC50 [2, 8] was 1 mM and the MIC90 [2, 9] was 2 mM. For the same compound, the “MIC range, single drug” value ([2]; canine otitis externa) was 190 to 750 µg/mL, the “MIC50, in combination of EDTA and ROB” value [2] was 380 µg/mL and the “MIC90, in combination of EDTA and ROB” value [2] was 380 µg/mL. The “MIC range, in combination of EDTA and ROB” value [2] was 190 to 380 µg/mL and the IC50 (HEK 293 cell line) was 3.4 mM.

In the case of N=C(N/N=C/c1ccc(Cl)cc1)N/N=C/c1ccc(Cl)cc1 [ROB, robenidine], the “serum impact on MIC values” ([3]; 10% serum) is given as “fourfold increase”, the “serum impact on MIC values” ([3]; 50% serum) is given as “no antimicrobial activity” and the “MBC/MIC, ROB in combination with EDTA” value [1] is given as no less than 2. For the same compound, the MIC50 [1, 6] was greater than 256 µg/mL, the MIC90 [1, 7] was greater than 256 µg/mL and the “MIC range, single drug” value ([1]; canine otitis externa) was greater than 256 µg/mL. The “MIC50, in combination of EDTA and ROB” value [1] was 0.25 µg/mL, the “MIC90, in combination of EDTA and ROB” value [1] was 2 µg/mL and the “MIC range, in combination of EDTA and ROB” value [1] was 0.125 to 4 µg/mL. For the same compound, the “MBC/MIC, ROB in combination with EDTA” value [2] was no less than 2, the MIC50 [2, 6] was greater than 256 µg/mL and the MIC90 [2, 7] was greater than 256 µg/mL. For the same compound, the “MIC range, single drug” value ([2]; canine otitis externa) was greater than 256 µg/mL, the “MIC50, in combination of EDTA and ROB” value [2] was 0.125 µg/mL and the “MIC90, in combination of EDTA and ROB” value [2] was 0.5 µg/mL. For the same compound, the “MIC range, in combination of EDTA and ROB” value [2] was 0.125 to 4 µg/mL, the “lowest robenidine concentration inhibiting growth” value ([4]; in combination with PMBN, Gram-negative ATCC strains of ESKAPE pathogens) was no less than 0.125 µg/mL and the DRIs of robenidine ([4]; in the presence of EDTA, Gram-negative control strains (Table 1)) was 2- to 256 fold. For the same compound, the DRIs of robenidine ([4]; in the presence of PMBN, Gram-negative control strains (Table 2)) was 8- to 256 fold, the MIC ([4]; in the presence of PMBN, Gram-negative pathogens, read-out: MIC of robenidine) was 0.5 to 8 µg/mL and the DRIs of robenidine ([4]; in the presence of both EDTA and PMBN, all tested isolates (abstract)) was 2- to 2048 fold. For the same compound, the “fold increase in susceptibility” value ([4]; robenidine in combination with PMBN, Gram-negative ATCC strains of ESKAPE pathogens) was 4- to 256 fold, the MIC values ([5]; Gram-positive bacteria: S. pseudintermedius and beta-haemolytic streptococci) was 1 to 16 µg/mL and the MIC90 of robenidine ([5]; in the presence of EDTA, tested pathogens) was 0.5 to 4 µg/mL.
